Values of other authors, collected in US20040096950A1, “Crystal structure of beta site APP cleaving enzyme (BACE) and methods of use thereof” (priority 2002, published 2004).
Where a SMILES comes first, the peptide text is derived from it. [ ]: non-standard residue; d: D form. The star is where a group is joined. Sta = CC(C)C[C@H](N)[C@@H](O)CC(=O)O; Isovaleryl = CC(C)CC(=O)*

Target: BACE (Homo sapiens, UniProt P56817)
Details: background statement, no concentration given

Sequence of BACE (P56817 46-501): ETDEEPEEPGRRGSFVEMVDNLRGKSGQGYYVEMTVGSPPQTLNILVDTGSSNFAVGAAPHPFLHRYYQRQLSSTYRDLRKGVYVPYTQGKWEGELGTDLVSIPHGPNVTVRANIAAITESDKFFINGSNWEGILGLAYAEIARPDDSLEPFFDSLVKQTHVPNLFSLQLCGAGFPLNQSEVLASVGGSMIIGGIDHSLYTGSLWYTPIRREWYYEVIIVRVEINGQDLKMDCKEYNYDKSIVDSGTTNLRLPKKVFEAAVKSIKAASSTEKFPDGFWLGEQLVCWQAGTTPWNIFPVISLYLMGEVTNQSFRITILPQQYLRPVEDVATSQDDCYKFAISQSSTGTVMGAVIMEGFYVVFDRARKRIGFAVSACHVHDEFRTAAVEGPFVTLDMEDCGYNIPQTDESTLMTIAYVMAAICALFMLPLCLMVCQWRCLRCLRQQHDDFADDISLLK

CC(C)CC(=O)N[C@H](C(=O)N[C@H](C(=O)N[C@@H](CC(C)C)[C@@H](O)CC(=O)N[C@@H](C)C(=O)N[C@@H](CC(C)C)[C@@H](O)CC(=O)O)C(C)C)C(C)C [pepstatin] (Isovaleryl-VV[Sta]A[Sta]-OH)
inhibition of BACE: inhibited weakly
